Source: patent publication US20010000177A1, “Novel class of thiomorpholino substituted thiazoles” (priority 1999, published 2001)
In brackets after ≈: the same amount, converted by molar mass. Marks after values point to notes of the source that are not given here.

Legend:
Assay type in all cases: cell-based
[1] = system: Candida and Cryptococcus strains (organism not given); assay: Broth microdilution antifungal activity, Table II first MIC/MCC column pair; conditions: for MIC = Minimum inhibitory concentration (50% Inhibition) / MCC = Minimum cytolytic concentration: first column pair of Table II; for MIC = Minimum inhibitory concentration (50% Inhibition): YNB broth pH 7.0; for MCC = Minimum cytolytic concentration: subculture on SDA plate
Procedure: (§1) Organisms: Three strains of Candida (Candida parpsilosis, Candida tropicalis, Candida albicans-ATCC 36082) as well as Cryptococcus neoformans were used for the initial testing. […] All clinical strains used in this study were blood culture isolates from the Clinical Microbiology Laboratory of Harbor-UCLA Medical Center, Torrance, Calif. The organisms were maintained on Sabourahd Dextrose Agar slants at 4° C. For experimentation, singlet suspensions of each organism were prepared by growing the yeast overnight at 27° C. on a rotating drum in yeast-nitrogen base broth (YNB) with amino acids (Difco, Detroit, Mich.), pH 7.0 with 0.05M morpholinepropanesulfonic acid (MOPS). The suspension was then centrifuged and washed twice with 0.85% NaCl. This was followed by sonication of the washed cell suspension for 4s (Branson Sonifier, model 350, Danbury, Conn.). The singlet blastospores were counted in a hemocytometer and adjusted to the desired concentration in 0.85% NaCl.
(§2) Antifungal Activity: The antifungal activity of the compounds and Fluconazole against the Candida and Cryptococcus strains were determined using a modification of a broth microdilution technique. Test compounds were diluted in DMSO to a 1.0 mg/ml ratio then diluted to 64 μg/ml in YNB broth, pH 7.0 with MOPS (Fluconazole was used as the control). This was to provide a working solution of each compound. Using a 96-well plate, wells 1 and 3 through 12 were prepared with YNB broth, […] dilutions of the compound solution were made in wells 2 through 11 (concentration ranges were 64 to 0.125 μg/ml). Well one served as a sterility control and blank for the spectrophotometric assays. Well twelve served as a growth control. The microtiter plates were inoculated with 10 ul in each of well 2 through 11 (final inoculum size was 10^4 organisms/ml). Inoculated plates were incubated for 48 hrs., at 35° C. The MIC values were determined spectrophotometrically by measuring the absorbance at 420 nm (Automatic Microplate Reader, DuPont Instruments, Wilmington, Del.) after agitation of the plates for 2 min with a vortex-mixer (Vorte-Genie 2 Mixer, Scientific Industries, Inc., Bolemia, N.Y.). […] With the turbidity assay this was defined as the lowest drug concentration at which turbidity in the well was <50% of the control (IC50) Minimal Cytolytic Concentrations (MCC) were determined by subculturing all wells from the 96-well plate onto a Sabourahd Dextrose Agar (SDA) plate and incubated for 1 to 2 days at 35° C. and the viability was checked.

[2] = system: Candida and Cryptococcus strains (organism not given); assay: Broth microdilution antifungal activity, Table II second MIC/MCC column pair; conditions: for MIC = Minimum inhibitory concentration (50% Inhibition) / MCC = Minimum cytolytic concentration: second column pair of Table II; for MIC = Minimum inhibitory concentration (50% Inhibition): YNB broth pH 7.0; for MCC = Minimum cytolytic concentration: subculture on SDA plate
Procedure: (§3) Organisms: Three strains of Candida (Candida parpsilosis, Candida tropicalis, Candida albicans-ATCC 36082) as well as Cryptococcus neoformans were used for the initial testing. Active compounds were then tested against fluconazole resistant Candida albicans, Candida krusei, Torulopsis glabrata, and Cryptococcus neoformans along with Sporothrix shenkii and Aspergillus flavus in the secondary round of testing. All clinical strains used in this study were blood culture isolates from the Clinical Microbiology Laboratory of Harbor-UCLA Medical Center, Torrance, Calif. The organisms were maintained on Sabourahd Dextrose Agar slants at 4° C. For experimentation, singlet suspensions of each organism were prepared by growing the yeast overnight at 27° C. on a rotating drum in yeast-nitrogen base broth (YNB) with amino acids (Difco, Detroit, Mich.), pH 7.0 with 0.05M morpholinepropanesulfonic acid (MOPS). The suspension was then centrifuged and washed twice with 0.85% NaCl. This was followed by sonication of the washed cell suspension for 4s (Branson Sonifier, model 350, Danbury, Conn.). The singlet blastospores were counted in a hemocytometer and adjusted to the desired concentration in 0.85% NaCl.
as §2

[3] = system: Candida and Cryptococcus strains (organism not given); assay: Broth microdilution antifungal activity, Table II fourth MIC/MCC column pair; conditions: for MIC = Minimum inhibitory concentration (50% Inhibition) / MCC = Minimum cytolytic concentration: fourth column pair of Table II; for MIC = Minimum inhibitory concentration (50% Inhibition): YNB broth pH 7.0; for MCC = Minimum cytolytic concentration: subculture on SDA plate
Procedure: as §1, §2

[4] = system: Candida and Cryptococcus strains (organism not given); assay: Broth microdilution antifungal activity, Table II third MIC/MCC column pair; conditions: for MIC = Minimum inhibitory concentration (50% Inhibition): 48 hrs, 35° C., YNB broth pH 7.0; for MCC = Minimum cytolytic concentration: subculture on SDA plate
Procedure: as §3, §2

Row | Compound | MIC = Minimum inhibitory concentration (50% Inhibition) ([1]; 48 hrs, 35° C.) | MIC = Minimum inhibitory concentration (50% Inhibition) ([2]; 48 hrs, 35° C.) [mg/L] | MIC = Minimum inhibitory concentration (50% Inhibition) ([3]; 48 hrs, 35° C.) [mg/L] | MIC = Minimum inhibitory concentration (50% Inhibition) [4] [mg/L] | MIC ([1]; Candida, 48 h, pH 7, first column pair of Table II, 48 hrs, 35° C., YNB broth pH 7.0, read-out: MIC = Minimum inhibitory concentration (50% Inhibition)) [mg/L] | MIC ([2]; Candida, 48 h, pH 7, second column pair of Table II, 48 hrs, 35° C., YNB broth pH 7.0, read-out: MIC = Minimum inhibitory concentration (50% Inhibition)) [mg/L] | MIC ([3]; Candida, 48 h, pH 7, fourth column pair of Table II, 48 hrs, 35° C., YNB broth pH 7.0, read-out: MIC = Minimum inhibitory concentration (50% Inhibition)) [mg/L] | MCC = Minimum cytolytic concentration [1] [µg/mL] | MCC = Minimum cytolytic concentration [2] [µg/mL] | MCC = Minimum cytolytic concentration [3] [µg/mL] | MCC = Minimum cytolytic concentration [4] [µg/mL]
1 | COc1ccc(-c2nc(-c3ccc(CN(C)CCO)cc3)cs2)cc1[N+](=O)[O-] [Example 1ll, 2-(4′-methoxy-3′-nitrophenyl)-4-[4″-(N-methyl-N-(2-hydroxy-ethyl)amino-methyl)phenyl]thiazole] | 8 µg/mL (≈ 20 µM) | 2 (≈ 5.01 µM) | 2 (≈ 5.01 µM) | 4 (≈ 10 µM) |  |  |  | 8 | 2 | 8 | 4
2 | C=CCN(C)Cc1ccc(-c2csc(-c3ccc(F)cc3)n2)cc1 [Example 1, 2-(4′-fluorophenyl)-4-[4″-(N-methyl-N-allylaminomethyl)phenyl]thiazole] | 4^c μg/ml | 4 (≈ 11.8 µM) | 4 (≈ 11.8 µM) | 4 (≈ 11.8 µM) |  |  |  | 16 | 16 | 16 | 16
3 | OC(Cn1cncn1)(Cn1cncn1)c1ccc(F)cc1F [Fluconazole, reference compound] | 0.5 µg/mL (≈ 1.63 µM) | 1.0 (≈ 3.27 µM) | 0.5 (≈ 1.63 µM) |  | 0.25 (≈ 0.816 µM) | 0.5 (≈ 1.63 µM) | 1 (≈ 3.27 µM) | >64 | >64 | >64 | >64
4 | CNCCN(C)Cc1ccc(-c2csc(-c3ccc(Cl)cc3)n2)cc1 [Example 1tt, 2-(4′-chlorophenyl)-4-[4″-(N-methyl-N-(2-N-methylaminoethyl)-amino-methyl)phenyl]thiazole] | 4 µg/mL (≈ 10.8 µM) | 4 (≈ 10.8 µM) | 2 (≈ 5.38 µM) | 2 (≈ 5.38 µM) |  |  |  | 16 | 16 | 4 | 16
5 | C=CCN(C)Cc1ccc(-c2csc(-c3ccc(OC)c([N+](=O)[O-])c3)n2)cc1 [Example 1kk, 2-(4′-methoxy-3′-nitrophenyl)-4-[4″-(N-methyl-N-allylamino-methyl)phenyl]thiazole] | 1 µg/mL (≈ 2.53 µM) | 0.25 (≈ 0.632 µM) | 0.5 (≈ 1.26 µM) | 1 (≈ 2.53 µM) |  |  |  | 2 | 1 | 2 | 2
6 | C=CCN(C)Cc1ccc(-c2csc(-c3cccc([N+](=O)[O-])c3)n2)cc1 [Example 1k, 2-(3′-nitrophenyl)-4-[4″-(N-methyl-N-allylaminomethyl)phenyl]thiazole] | 0.5 µg/mL (≈ 1.37 µM) | 0.25 (≈ 0.684 µM) | 0.25 (≈ 0.684 µM) | 0.25 (≈ 0.684 µM) |  |  |  | 1 | 0.5 | 0.5 | 0.25
7 | CN(C)Cc1ccc(-c2csc(-c3cccc([N+](=O)[O-])c3)n2)cc1 [Example 1aa, 2-(3′-nitrophenyl)-4-[4″-(dimethylaminomethyl)phenyl]-thiazole] | 4 µg/mL (≈ 11.8 µM) | 4 (≈ 11.8 µM) | 4 (≈ 11.8 µM) | 4 (≈ 11.8 µM) |  |  |  | 4 | 4 | 4 | 4
8 | CCCN(C)Cc1ccc(-c2csc(-c3ccc([N+](=O)[O-])cc3)n2)cc1 [Example 1o, 2-(4′-nitrophenyl)-4-[4″-(N-methyl-N-propylaminomethyl)phenyl]thiazole] | 1 µg/mL (≈ 2.72 µM) | 1 (≈ 2.72 µM) | 0.125 (≈ 0.34 µM) | 2 (≈ 5.44 µM) |  |  |  | 4 | 4 | 2 | 32
9 | C=CCN(C)Cc1ccc(-c2csc(-c3ccc([N+](=O)[O-])cc3)n2)cc1 [Example 1h, 2-(4′-nitrophenyl)-4-[4″-(N-methyl-N-allylaminomethyl)phenyl]thiazole] | 0.5^c μg/ml | 0.25 (≈ 0.684 µM) | 0.5 (≈ 1.37 µM) | 0.125 (≈ 0.342 µM) |  |  |  | 2 | 1 | 2 | 0.5

Now from value to compound, other results behind:

Row | MIC = Minimum inhibitory concentration (50% Inhibition) ([1]; 48 hrs, 35° C.) | MIC = Minimum inhibitory concentration (50% Inhibition) ([2]; 48 hrs, 35° C.) [mg/L] | MIC = Minimum inhibitory concentration (50% Inhibition) ([3]; 48 hrs, 35° C.) [mg/L] | MIC = Minimum inhibitory concentration (50% Inhibition) [4] [mg/L] | MIC ([1]; Candida, 48 h, pH 7, first column pair of Table II, 48 hrs, 35° C., YNB broth pH 7.0, read-out: MIC = Minimum inhibitory concentration (50% Inhibition)) [mg/L] | MIC ([2]; Candida, 48 h, pH 7, second column pair of Table II, 48 hrs, 35° C., YNB broth pH 7.0, read-out: MIC = Minimum inhibitory concentration (50% Inhibition)) [mg/L] | MIC ([3]; Candida, 48 h, pH 7, fourth column pair of Table II, 48 hrs, 35° C., YNB broth pH 7.0, read-out: MIC = Minimum inhibitory concentration (50% Inhibition)) [mg/L] | Compound | MCC = Minimum cytolytic concentration [1] [µg/mL] | MCC = Minimum cytolytic concentration [2] [µg/mL] | MCC = Minimum cytolytic concentration [3] [µg/mL] | MCC = Minimum cytolytic concentration [4] [µg/mL]
10 | 4 µg/mL (≈ 12.9 µM) | 8 (≈ 25.9 µM) | 0.25 (≈ 0.808 µM) | 0.5 (≈ 1.62 µM) |  |  |  | COc1ccc(-c2nnc(-c3ccc(CN(C)C)cc3)o2)cc1 [Example 9j, 2-(4′-methoxyphenyl)-5-[4″-(dimethylaminomethyl)phenyl]-1,3,4-oxadiazole] | 32 | 8 | 8 | 0.5
11 | 2 µg/mL (≈ 6.26 µM) | 2 (≈ 6.26 µM) | 8 (≈ 25 µM) | 2 (≈ 6.26 µM) |  |  |  | CN(C)Cc1ccc(-c2csc(-c3cccc(C#N)c3)n2)cc1 [Example 6o, 2-(3′-cyanophenyl)-4-[4″-(dimethylaminomethyl)phenyl]thiazole] | 4 | 8 | 16 | >64
12 | 8 µg/mL (≈ 17.8 µM) | 4 (≈ 8.92 µM) | 4 (≈ 8.92 µM) | 8 (≈ 17.8 µM) |  |  |  | CCCN(C)Cc1ccc(-c2csc(-c3ccc(I)cc3)n2)cc1 [Example 6g, 2-(4′-iodophenyl)-4-[4″-(N-methyl-N-propylaminomethyl)phenyl]-thiazole] | 4 | 2 | 4 | 4
